In ChEMBL document CHEMBL1201862, “PubChem BioAssay data set” (2004):
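A five-concentration, 48-hour dose response in 96-well plates underlies each endpoint, interpolated linearly between surrounding concentrations. Here, GI50 denotes the concentration required for 50% inhibition of growth.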 Calls of active or inactive are those of the source. Rule as the data show it: active = GI50 up to about 1.1 µM and inactive = higher.

What was measured:
Experiment in all cases: NCI anticancer screen, dose series, 48 h
SK-MEL-5 = test system: SK-MEL-5
SF-295 = test system: SF-295
SN12C = test system: SN12C
OVCAR-4 = test system: OVCAR-4
DU-145 = test system: DU-145
HOP-92 = test system: HOP-92
T47D = test system: T47D
RPMI-8226 = test system: RPMI-8226
COLO 205 = test system: COLO 205
Hs-578T = test system: Hs-578T
A498 = test system: A498
SK-OV-3 = test system: SK-OV-3
BT-549 = test system: BT-549
MCF7 = test system: MCF7
CCRF-CEM = test system: CCRF-CEM
SF-539 = test system: SF-539
KM12 = test system: KM12
IGROV-1 = test system: IGROV-1
LOX IMVI = test system: LOX IMVI

Measured: GI50

COc1ccc(-n2cnc3c(N)nc(N)nc32)cc1
inactive: SK-MEL-5 > 100 µM | SF-295 > 100 µM | SN12C 53.6 µM | OVCAR-4 > 100 µM | DU-145 > 100 µM | HOP-92 > 100 µM | T47D > 100 µM | RPMI-8226 > 100 µM | COLO 205 > 100 µM | Hs-578T 25.6 µM | A498 54.8 µM | SK-OV-3 > 100 µM | BT-549 > 100 µM | MCF7 90.8 µM | CCRF-CEM 25.4 µM | SF-539 49.5 µM | KM12 29.1 µM | IGROV-1 56.9 µM

CCN1CSC(=S)N(CC)C1
inactive: SK-MEL-5 76.9 µM | SF-295 > 100 µM | SN12C > 100 µM | OVCAR-4 > 100 µM | DU-145 > 100 µM | HOP-92 > 100 µM | T47D > 100 µM | RPMI-8226 50.9 µM | COLO 205 54.8 µM | Hs-578T > 100 µM | A498 27.8 µM | SK-OV-3 > 100 µM | BT-549 > 100 µM | MCF7 41 µM | CCRF-CEM 71.6 µM | SF-539 27.7 µM | KM12 98.2 µM | IGROV-1 75.3 µM

NS(=O)(=O)c1ccc(NCc2cnc3ccccc3n2)cc1
inactive: SK-MEL-5 > 100 µM | SF-295 > 100 µM | SN12C > 100 µM | OVCAR-4 > 100 µM | DU-145 > 100 µM | HOP-92 > 100 µM | T47D > 100 µM | RPMI-8226 > 100 µM | COLO 205 > 100 µM | Hs-578T > 100 µM | A498 > 100 µM | SK-OV-3 > 100 µM | BT-549 > 100 µM | MCF7 > 100 µM | CCRF-CEM > 100 µM | SF-539 > 100 µM | KM12 > 100 µM | IGROV-1 > 100 µM

O=C(OCc1ccc([N+](=O)[O-])cc1)N1c2ccccc2[C@@]23O[C@]24CCC[C@H]3C#C/C=C\C#C[C@H]14
inactive: SK-MEL-5 > 100 µM | SF-295 > 100 µM | SN12C > 100 µM | OVCAR-4 > 100 µM | DU-145 > 100 µM | HOP-92 > 100 µM | T47D > 100 µM | COLO 205 65.6 µM | Hs-578T 58.9 µM | A498 > 100 µM | SK-OV-3 > 100 µM | BT-549 > 100 µM | MCF7 8.18 µM | CCRF-CEM 12.9 µM | SF-539 > 100 µM | LOX IMVI 56.5 µM | KM12 > 100 µM | IGROV-1 > 100 µM

Oc1ccc(SCc2cc(O)c(O)c(O)c2)cc1
inactive: SK-MEL-5 18 µM | SF-295 15.8 µM | SN12C 26.4 µM | DU-145 56.5 µM | HOP-92 > 100 µM | T47D > 100 µM | RPMI-8226 26.7 µM | COLO 205 18.7 µM | Hs-578T 77.8 µM | A498 40.5 µM | SK-OV-3 65.9 µM | BT-549 25.6 µM | MCF7 20.4 µM | CCRF-CEM 19.3 µM | SF-539 82.8 µM | LOX IMVI 35.9 µM | KM12 20.3 µM | IGROV-1 20.5 µM

COc1cc(O)c2c(=O)c3ccccc3n(C)c2c1
inactive: SK-MEL-5 4.66 µM | SF-295 27.7 µM | SN12C > 100 µM | OVCAR-4 89.3 µM | DU-145 > 100 µM | HOP-92 46.1 µM | T47D > 100 µM | COLO 205 > 100 µM | Hs-578T 13.4 µM | A498 90.4 µM | SK-OV-3 26.8 µM | BT-549 52.2 µM | MCF7 > 100 µM | CCRF-CEM 24 µM | SF-539 28.4 µM | LOX IMVI 84.5 µM | KM12 > 100 µM | IGROV-1 > 100 µM
